Key:
[1] = molecular target: T1, DPAGT1 (Human) (Homo sapiens, UniProt Q9H3H5); experiment: DPAGT1 assay; format: biochemical
T1 construct: made in house; host or cells: Expi293 cells (suspension)
T1 sequence (Q9H3H5 1-408): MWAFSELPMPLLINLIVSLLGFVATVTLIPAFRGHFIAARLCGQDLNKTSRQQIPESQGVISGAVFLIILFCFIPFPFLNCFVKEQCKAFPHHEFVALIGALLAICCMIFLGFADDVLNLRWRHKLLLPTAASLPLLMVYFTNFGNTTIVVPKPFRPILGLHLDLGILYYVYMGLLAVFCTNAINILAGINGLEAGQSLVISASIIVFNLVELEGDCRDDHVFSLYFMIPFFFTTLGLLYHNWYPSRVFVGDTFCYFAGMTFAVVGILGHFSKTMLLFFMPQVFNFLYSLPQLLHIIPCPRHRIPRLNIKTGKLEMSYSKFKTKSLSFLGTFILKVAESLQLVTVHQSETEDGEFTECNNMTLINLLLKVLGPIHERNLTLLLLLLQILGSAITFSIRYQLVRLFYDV
Experimental: DPAGT1 expression and purification. DPAGT1 was expressed in suspended Expi293 cells for 36 h. The cells were lysed by drawing through a 26 g needle (10 times) and membrane protein was extracted using buffer containing 1% decyl f3-D-maltopyranoside detergent. DPAGT1 was purified using HA-agarose resin and a superdex 200 size exclusion column.

[2] = test system: DLD-1; experiment: MTT cytotoxicity assay; format: cell-based; details: 72 h
Experimental: (§1) Cell lines. The human primary PDAC cell lines PANC-1 (ATCC CRL 1469); Capan-2 (ATCC HTB-80) and metastatic PDAC cell lines Capan-1 (ATCC HTB-79), AsPC-1 (ATCC CRL-1682), L1210 (ATCC CCL-219), KB (ATCC CCL-17), HeLa, SiHa (ATCC HTB-35), HCT-116 (ATCC CCL-247), DLD-1 (ATCC CCL221), hTERT-HPNE (ATCC CRL-4023), Vero (ATCC CCL-81) were purchased from the ATCC. The cell lines were cultured and maintained in the media as recommended by the supplier. The cell lines were regularly tested for mycoplasma contamination and authenticated. In addition to ATCC cell lines, Dr. Glazer's lab generated patient-derived PDAC cell line, PD002. PD002 Cells were maintained and cultured in DMEM medium supplemented with 20% FBS and 100 IU/mL penicillin and incubated at 37° C. with 5% CO2.
(§2) MTT cytotoxicity assay. To study the effect of treatment with DPAGT1 inhibitors on the growth and proliferation of cells, a fixed number of cells (5×10^4 cells/well, 196 μL) were plated in a 96 well plate. Into each well 5 μL of drug concentration was added. After 72 h of incubation with drugs at 37° C., 5% CO2, 10 μL of MTT solution (5 mg/mL in PBS) was added and incubated another 3 h at 37° C., 5% CO2. The medium was removed, and DMSO (200 μL/well) was added. Viability was assessed on the basis of cellular conversion of MTT into a purple formazan product. The absorbance of the colored formazan product was measured at 570 nm by BioTek Synergy HT Spectrophotometer.

[3] = test system: HCT-116; experiment: MTT cytotoxicity assay; format: cell-based; details: 72 h
Experimental: as §1, §2

[4] = test system: HPNE; experiment: MTT cytotoxicity assay; format: cell-based
Experimental: as §1, §2

[5] = test system: L1210; experiment: MTT cytotoxicity assay; format: cell-based
Experimental: as §1, §2

[6] = test system: PD002; experiment: MTT cytotoxicity assay; format: cell-based
Experimental: as §1, §2

[7] = test system: SiHa; experiment: MTT cytotoxicity assay; format: cell-based; details: 72 h
Experimental: as §1, §2

[8] = test system: Vero; experiment: MTT cytotoxicity assay; format: cell-based
Experimental: as §1, §2

[9] = test system: Snail; experiment: Western blot of Snail in cervical cancer; format: cell-based; details: effective at 0.2 μM
[10] = test system: DPAGT1; experiment: Immunofluorescent staining of DPAGT1 expression; format: cell-based
[11] = test system: PD002; experiment: Checkerboard synergy (FIC index) with paclitaxel; format: cell-based
Experimental: The synergistic or antagonistic activities of CPPB were assessed in vitro via checkerboard technique.

[12] = molecular target: T2, AglH (M. jannaschii) (Methanocaldococcus jannaschii, UniProt Q58513); experiment: AglH assay; details: read-out: IC50 AglH (M. jannaschii)
T2 sequence (Q58513 1-301): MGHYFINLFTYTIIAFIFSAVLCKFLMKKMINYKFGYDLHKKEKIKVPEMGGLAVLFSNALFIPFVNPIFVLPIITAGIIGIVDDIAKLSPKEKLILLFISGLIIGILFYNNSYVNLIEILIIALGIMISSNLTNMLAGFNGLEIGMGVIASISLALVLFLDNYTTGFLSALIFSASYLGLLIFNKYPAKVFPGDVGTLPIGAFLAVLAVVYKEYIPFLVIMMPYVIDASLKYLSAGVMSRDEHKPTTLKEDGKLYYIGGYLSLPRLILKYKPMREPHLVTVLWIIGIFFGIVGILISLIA

“(2S,3S,4S)-2-((1R)-2-Amino-1-((2S,5R)-5-(2,4-dioxo-3,4-dihydropyrimidin-1(2H)-yl)-4-hydroxy-3-methoxytetrahydrofuran-2-yl)-2-oxoethoxy)-3,4-dihydroxy-N-(4-(4-(4-(trifluoromethoxy)-phenyl)piperidin-1-yl)benzyl)-3,4-dihydro-2H-pyran-6-carboxamide [CPPB]” was tested, and the “DPAGT1 inhibitory activity (in words)” value [1] was “high nM range DPAGT1 inhibitors”, the IC50 [1] was 200 nM and the “DPAGT1 inhibitory strength relative to I-CPPB” value ([1]; CPPB vs. I-CPPB) was “three times stronger”. The “DPAGT1 inhibitory activity relative to tunicamycin” value ([1]; CPPB vs. tunicamycin) was about 7.5 times, the IC50 [2] was 25000 nM and the IC50 [3] was 15000 nM. The IC50 ([4]; MTT, 72 h) was over 50000 nM, the “antiproliferative activity against HPNE” value ([4]; at 50 μM, normal pancreatic ductal cell) was “did not show antiproliferative activity” and the IC50 ([5]; MTT, 72 h) was over 50000 nM. For the same substance, the “antiproliferative activity against L1210” value ([5]; at 50 μM) was “did not show antiproliferative activity”, the “cell viability of PD002 (MTT reduction assay)” value ([6]; 50 μM) was “significantly decreased” and the IC50 ([6]; MTT, 72 h) was 35000 nM. For the same substance, the IC50 [7] was 15000 nM, the IC50 ([8]; MTT, 72 h) was over 50000 nM and the “antiproliferative activity against Vero” value ([8]; at 50 μM, normal kidney cell) was “did not show antiproliferative activity”. For the same substance, the “Snail expression in SiHa” value [9] was “inhibited by treatment of CPPB in a concentration dependent manner”, the DPAGT1 protein expression [10] was “decreased” and the “DPAGT1 expression in pancreatic cancer cell lines” value ([10]; 0.2 μM) was “apparently inhibited”. For the same substance, the “order of decrease of DPAGT1 expression” value ([10]; 0.2 μM) was “PANC-1>PD002>>HCT-116”, the “DPAGT1 expression levels of HCT-116” value ([10]; 20 μM) was “remained high” and the “DPAGT1 expression of the pancreatic cancer cell lines at high concentration” value ([10]; 2-20 μM) was “could not completely be inhibited”. For the same substance, the “synergistic effect with paclitaxel” value ([11]; PD002) was “strong synergistic effect”, the IC50 ([11]; alone, read-out: IC50 of the single agent against PD002) was 35000 nM and the ΣFIC ([11]; entry 1, CPPB 0.10 μM + paclitaxel 0.63 μM) was 0.50. For the same substance, the IC50 ([11]; entry 1, with paclitaxel 0.63 μM, read-out: IC50 CA (CPPB in combination)) was 100 nM, the ΣFIC ([11]; entry 2, CPPB 0.10 μM + paclitaxel […]) was 0.13 and the IC50 ([11]; entry 2, with paclitaxel […], read-out: IC50 CA (CPPB in combination)) was 100 nM. For the same substance, the ΣFIC ([11]; entry 3, CPPB 0.20 μM + paclitaxel 0.0049 μM) was 0.0096, the IC50 ([11]; entry 3, with paclitaxel 0.0049 μM, read-out: IC50 CA (CPPB in combination)) was 200 nM and the ΣFIC ([11]; entry 4, CPPB 0.20 μM + paclitaxel 0.020 μM) was 0.021. It also gave an IC50 ([11]; entry 4, with paclitaxel 0.020 μM, read-out: IC50 CA (CPPB in combination)) of 200 nM, a ΣFIC ([11]; entry 5, CPPB 0.20 μM + paclitaxel 0.031 μM) of 0.26 and an IC50 ([11]; entry 5, with paclitaxel 0.031 μM, read-out: IC50 CA (CPPB in combination)) of 200 nM. For the same substance, the ΣFIC ([11]; entry 6, CPPB 2.0 μM + paclitaxel 0.020 μM) was 0.021, the IC50 ([11]; entry 6, with paclitaxel 0.020 μM, read-out: IC50 CA (CPPB in combination)) was 2000 nM and the ΣFIC ([11]; entry 7, CPPB 2.0 μM + paclitaxel 0.039 μM) was 0.037. The IC50 ([11]; entry 7, with paclitaxel 0.039 μM, read-out: IC50 CA (CPPB in combination)) was 2000 nM, the ΣFIC ([11]; entry 8, CPPB 2.0 μM + paclitaxel 0.31 μM) was 0.26 and the IC50 ([11]; entry 8, with paclitaxel 0.31 μM, read-out: IC50 CA (CPPB in combination)) was 2000 nM. For the same substance, the IC50 [12] was 150 nM.

— patent US12570684B2 (UNIVERSITY OF TENNESSEE RESEARCH FOUNDATION, priority 2020, dated 2026)
